Like-named read-outs stand apart in the source and are kept apart here.
Key:
Format in all cases: in vivo
[1] = tested on: barnyardgrass (Echinochloa crus-galli); experiment: Test A greenhouse herbicide test, pre- and postemergence; conditions: 1000 g ai/ha, 0 to 100 scale; for pest or weed control at 1000 g/ha: Echinochloa crus-galli, 240 h
Outline: (§1)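 Visual injury ratings, 0 (no effect) to 100 (complete control), versus untreated plants after roughly 10 d in a greenhouse. Compounds, formulated in a surfactant-containing non-phytotoxic solvent, were sprayed on loam–sand soil after sowing (pre) or on one- to two-leaf plants 2–10 cm tall (post).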

corn (Zea mays) = experiment: as above; conditions: 1000 g ai/ha, 0 to 100 scale
Outline: as §1

[2] = tested on: foxtail, giant (giant foxtail, Setaria faberii); experiment: as above; conditions: 1000 g ai/ha, 0 to 100 scale; for pest or weed control at 1000 g/ha: Setaria faberi, 240 h
Outline: as §1

[3] = tested on: pigweed (Amaranthus retroflexus); experiment: as above; conditions: 1000 g ai/ha, 0 to 100 scale
Outline: as §1

[4] = tested on: momingglory (Ipomoea spp.); experiment: as above; conditions: 1000 g ai/ha, 0 to 100 scale; for pest or weed control at 1000 g/ha: Ipomoea, 240 h
Outline: as §1

[5] = tested on: velvetleaf (Abutilon theophrasti); experiment: as above; conditions: Preemergence, 1000 g ai/ha, 0 to 100 scale, 0 no effect, 100 complete control
Outline: as §1

[6] = tested on: wheat (Triticum aestivum); experiment: as above; conditions: 1000 g ai/ha, 0 to 100 scale; for plant injury at 1000 g/ha: Triticum aestivum, 240 h
Outline: as §1

[7] = tested on: crabgrass, large (large crabgrass, Digitaria sanguinalis); experiment: as above; conditions: 1000 g ai/ha, 0 to 100 scale
Outline: as §1

[8] = tested on: barnyardgrass (Echinochloa crus-galli); experiment: Test B flooded paddy test; conditions: 250 g ai/ha, Flood; visual rating on scale of 0 to 100 where 0 is no effect and 100 is complete control; 13 to 15 d after treatment
Outline: (§2)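 Ratings use a 0-100 visual scale, where 100 is complete control, and compare treated plants with controls after 13 to 15 d of greenhouse growth. Compound went straight into paddy water kept 3 cm over the soil surface, applied to seedlings at the 2-leaf stage.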

[9] = tested on: sedge, umbrella (small-flower umbrella sedge, Cyperus difformis); experiment: Test B flooded paddy test; conditions: 250 g ai/ha, Flood; visual rating on scale of 0 to 100 where 0 is no effect and 100 is complete control; 13 to 15 d after treatment
Outline: as §2

rice (Oryza sativa) = experiment: Test B flooded paddy test; conditions: 250 g ai/ha, Flood; visual rating on scale of 0 to 100 where 0 is no effect and 100 is complete control; 13 to 15 d after treatment
Outline: as §2

[10] = tested on: ducksalad (Heteranthera limosa); experiment: Test B flooded paddy test; conditions: 250 g ai/ha, Flood; visual rating on scale of 0 to 100 where 0 is no effect and 100 is complete control; 13 to 15 d after treatment
Outline: as §2

[11] = Postemergence, 0 is no effect, 100 is complete control
[12] = Preemergence, 0 no effect, 100 complete control

5-hydroxy-4-(5-methoxy-3-benzofuranyl)-2,6-dimethyl-3(2H)-pyridazinone [Compound 5]
Barnyardgrass plant response rating [1, 11]: 40 | Plant response rating, Barnyardgrass [1, 12]: 90 | Corn plant response rating (corn (Zea mays); [11]): 0 | Plant response rating, Corn (corn (Zea mays); [12]): 0 | Foxtail, Giant plant response rating [2, 11]: 80 | Plant response rating, Foxtail, Giant [2, 12]: 80 | Pigweed plant response rating [3, 11]: 10 | Plant response rating, Pigweed [3, 12]: 0 | Morningglory plant response rating [4, 11]: 70 | Plant response rating, Morningglory [4, 12]: 0 | Plant response rating, Velvetleaf [5]: 0 | Wheat plant response rating [6, 11]: 0 | Plant response rating, Wheat [6, 12]: 0 | Crabgrass, Large plant response rating [7, 11]: 80 | Plant response rating, Crabgrass, Large [7, 12]: 90 | Plant response rating, Barnyardgrass [8]: 0 | Plant response rating, Sedge, Umbrella [9]: 75 | Plant response rating, Rice (rice (Oryza sativa)): 0 | Plant response rating, Ducksalad [10]: 45

Cc1nn(C)c(=O)c(-c2c(C)oc3ccc(Cl)cc23)c1O [Compound 6, 4-(5-chloro-2-methyl-3-benzofuranyl)-5-hydroxy-2,6-dimethyl-3 (2H)-pyridazinone]
pest or weed control at 1000 g/ha ([1]; post-emergence, Postemergence, 0 is no effect, 100 is complete control, read-out: Barnyardgrass plant response rating): 70% | pest or weed control at 1000 g/ha ([1]; pre-emergence, Preemergence, 0 no effect, 100 complete control, read-out: Plant response rating, Barnyardgrass): 100% | plant injury at 1000 g/ha (corn (Zea mays); Zea mays, post-emergence, 240 h, Postemergence, 0 is no effect, 100 is complete control, read-out: Corn plant response rating): 0% | Corn plant response rating (crop injury, 0 = no effect, 100 = complete kill) at 1000 g/ha (corn (Zea mays); Zea mays, pre-emergence, 240 h, Preemergence, 0 no effect, 100 complete control): 30% | pest or weed control at 1000 g/ha ([2]; post-emergence, Postemergence, 0 is no effect, 100 is complete control, read-out: Foxtail, Giant plant response rating): 70% | pest or weed control at 1000 g/ha ([2]; pre-emergence, Preemergence, 0 no effect, 100 complete control, read-out: Plant response rating, Foxtail, Giant): 50% | pest or weed control at 1000 g/ha ([3]; Amaranthus retroflexus, post-emergence, 240 h, Postemergence, 0 is no effect, 100 is complete control, read-out: Pigweed plant response rating): 50% | pest or weed control at 1000 g/ha ([4]; post-emergence, Postemergence, 0 is no effect, 100 is complete control, read-out: Morningglory plant response rating): 40% | pest or weed control at 1000 g/ha ([4]; pre-emergence, Preemergence, 0 no effect, 100 complete control, read-out: Plant response rating, Morningglory): 10% | pest or weed control at 1000 g/ha ([5]; Abutilon theophrasti, pre-emergence, 240 h, read-out: Plant response rating, Velvetleaf): 20% | plant injury at 1000 g/ha ([6]; post-emergence, Postemergence, 0 is no effect, 100 is complete control, read-out: Wheat plant response rating): 20% | plant injury at 1000 g/ha ([6]; pre-emergence, Preemergence, 0 no effect, 100 complete control, read-out: Plant response rating, Wheat): 0% | pest or weed control at 1000 g/ha ([7]; Digitaria sanguinalis, post-emergence, 240 h, Postemergence, 0 is no effect, 100 is complete control, read-out: Crabgrass, Large plant response rating): 50%

— patent US10597388B2, “Pyridazinone herbicides” (FMC CORPORATION, priority 2014, dated 2020)
